Assay results published in patent publication US5079257A, “Indoloquinone compounds” (priority 1986, dated 1992).
Where two headings read alike, the source gives them in different places.

Assays:
Type in all cases: cell-based
[1] = tested on: A 204 cells; rhabdomyosarcoma; assay: In vitro panel of human tumour lines (TNO): A 204; conditions: about 72 hours; also: key: -: no inhibition of cell growth; +: total cell-kill
Method: (§1) Compounds E.O. 1, E.O. 2, E.O. 4, E.O. 4A, E.O. 8, E.O. 9, […], E.O. 33, and E.O. 35 were tested for their activity against five human tumour cell lines at the Radiobiological Institute TNO Rijswijk.
(§2) The new in vitro prescreen uses human tumour clones; it was set up by Dr. P. Lelieveld at TNO Rijswijk and comprises testing compounds in a bioliquid assay for their cytostatic activity against the following five human tumour lines:
(§3) After a continuous exposure to the drugs to be tested and to Adriamycin in `24 well tissue culture clusters, type 3524 (Costar)`, the remaining cells are fixed and stained. Using increasing drug concentrations the inhibiting concentration can be estimated qualitatively.
(§4) Cells: the human tumour cells are maintained in Dulbecco's medium supplemented with 10 percent foetal calf serum.
(§5) A, T and Z cell suspensions: 5·10^4 cells/ml
(§6) The cells were grafted into 16 mm wells for 48 hours (0.5 ml cell suspension per well was used).
(§7) Drugs: the compound to be tested was dissolved in appropriate concentrations in a mixture of Hepes-buffered Hanks' balanced salt solution and ethanol. The drug solutions (0.05 ml) were added to the different wells. The final ethanol concentration in each well was less than one percent.
(§8) The cells were continuously incubated with the compound under test at 37° in an atmosphere of 10 percent CO2 in humidified air for about 72 hours.
(§9) Determination of the inhibiting dose: the cells were fixed and stained with a solution of crystal violet in methanol/formaldehyde.

[2] = tested on: IgR37 cells melanoma; assay: In vitro panel of human tumour lines (TNO): IgR-37; conditions: about 72 hours; also: key: -: no inhibition of cell growth; +: total cell-kill
Method: as §1, §2, §3, §4, §5, §6, §7, §8, §9

[3] = tested on: MCF7 breast cancer cells; assay: In vitro panel of human tumour lines (TNO): MCF-7; conditions: about 72 hours; also: key: -: no inhibition of cell growth; +: total cell-kill
Method: as §1, §2, §3, §4
(§10) M and W cell suspensions: 10^5 cells/ml.
as §6, §7, §8, §9

[4] = tested on: T 24 cells; bladder carcinoma; assay: In vitro panel of human tumour lines (TNO): T 24; conditions: about 72 hours; also: key: -: no inhibition of cell growth; +: total cell-kill
Method: as §1, §2, §3, §4, §5, §6, §7, §8, §9

[5] = tested on: WiDr cells; colon tumour; assay: In vitro panel of human tumour lines (TNO): WiDr; conditions: about 72 hours; also: key: -: no inhibition of cell growth; +: total cell-kill
Method: as §1, §2, §3, §4, §10, §6, §7, §8, §9

[6] = tested on: L1210 cells; assay: L1210 activity (bioliquid assay), cytotoxicity; conditions: for IC50: Mus musculus; for ID-50 L1210: Table VI, 2880 min
Description: The indoloquinones II (formula II) have been tested in respect of their cytotoxic activity against L1210 cells and R-1 cells (Rhabdomyosarcoma Cells) in a bioliquid assay at the department of oncology of the Free University of Amsterdam (Table I). In addition to this seven compounds (E.O. 1, E.O. 2, E.O. 4, E.O. 7, E.O. 9, E.O. 16 and E.O. 17) have been tested on L1210 activity in a clonogenic assay at TNO, Rijswijk. Further, the lowest active doses of the compounds E.O. 1, E.O. 2, E.O. 4 and E.O. 9 have been determined at TNO Rijswijk, according to the method described by Lamberts et al. [Oncology, 40, 301 (1983)]. (Table II). Eight indoloquinones (E.O. 1, E.O. 2, E.O. 4, E.O. 4A, E.O. 8, E.O. 9, E.O. 33 and E.O. 35) have been tested in a panel of five human tumour lines (TNO Rijswijk; Table III). From the latter group three indoloquinones (E.O. 1, E.O. 4 and E.O. 9) have been selected for a cytotoxicity study, involving five slowly growing human tumour lines (University of Freiburg; Table IV).
For this purpose, L1210 cells were grown, as suspension, in Falcon multi-wells (growth area: 9.6 cm^2) using RPMI supplemented with 15% FCS and 2-mercapto-ethanol (60 μmol) as medium. In this medium, the cells were continuously incubated with the compound to be tested at 37° C. in an atmosphere of 5% CO2 in humidified air for 48 hours. Thereupon they were counted on a Sysmex microcell counter (CC110).
(§11) The in vitro L1210 and R-1 activities of the indoloquinones (formula III), were also determined in the bioliquid assays as described above.

[7] = tested on: R-1 cells (Rhabdomyosarcoma Cells); assay: R-1 activity (bioliquid assay), cytotoxicity; conditions: for IC50: Rhabdomyosarcoma cell
Description: The indoloquinones II (formula II) have been tested in respect of their cytotoxic activity against L1210 cells and R-1 cells (Rhabdomyosarcoma Cells) in a bioliquid assay at the department of oncology of the Free University of Amsterdam (Table I). […] (Table II). Eight indoloquinones (E.O. 1, E.O. 2, E.O. 4, E.O. 4A, E.O. 8, E.O. 9, E.O. 33 and E.O. 35) have been tested in a panel of five human tumour lines (TNO Rijswijk; Table III).
For the determination of the R-1 activity, Rhabdomyosarcoma cells were brought into Falcon multiwells (growth area: 9.6 cm^2) (~10^6 cells per dish) containing 3 ml of Dulbecco's medium supplemented with 10% Foeto Calf Serum (FCS). […] Thereupon the drug solution was removed and the cells were covered with fresh medium. After 48 hours the cells were trypsinized and counted on a Sysmex microcell counter (CC110).
as §11

[8] = L1210, Table I, bioliquid assay, 48 hours, read-out: ID-50 L1210
[9] = Table I, bioliquid assay, read-out: ID-50 R-1

## N.N.[Cl][Pt][Cl] [Cisplatin, reference compound]
[1]; 0.01 μg/ml
  in vitro activity score, A 204: -
[1]; 0.1 μg/ml
  in vitro activity score, A 204: -
[1]; 10 μg/ml
  in vitro activity score, A 204: +
[2]; 0.01 μg/ml
  in vitro activity score, IgR-37: -
[2]; 0.1 μg/ml
  in vitro activity score, IgR-37: -
[2]; 10 μg/ml
  in vitro activity score, IgR-37: +
[3]; 0.01 μg/ml
  in vitro activity score, MCF-7: -
[3]; 0.1 μg/ml
  in vitro activity score, MCF-7: -
[3]; 1.0 μg/ml
  in vitro activity score, MCF-7: -
[4]; 0.01 μg/ml
  in vitro activity score, T 24: -
[4]; 0.1 μg/ml
  in vitro activity score, T 24: -
[4]; 10 μg/ml
  in vitro activity score, T 24: +
[5]; 0.01 μg/ml
  in vitro activity score, WiDr: -
[5]; 0.1 μg/ml
  in vitro activity score, WiDr: -
[5]; 1.0 μg/ml
  in vitro activity score, WiDr: -
[5]; 10 μg/ml
  in vitro activity score, WiDr: +

## CCC1(O)CC2CN(CCc3c([nH]c4ccccc34)C(C(=O)OC)(c3cc4c(cc3OC)N(C=O)C3C(O)(C(=O)OC)C(OC(C)=O)C5(CC)C=CCN6CCC43C65)C2)C1 (stereo not drawn) [Vincrist., reference compound]
[2]; 0.01 μg/ml
  in vitro activity score, IgR-37: +
[2]; 0.1 μg/ml
  in vitro activity score, IgR-37: +
[4]; 0.01 μg/ml
  in vitro activity score, T 24: -
[4]; 0.1 μg/ml
  in vitro activity score, T 24: +
[5]; 0.01 μg/ml
  in vitro activity score, WiDr: +
[5]; 0.1 μg/ml
  in vitro activity score, WiDr: +

## CC(=O)OC/C=C/c1c(COC(C)=O)c2c(n1C)C(=O)C=C(N1CC1C)C2=O (stereo not drawn) [E.O. 53, 3-Acetoxymethyl-1-methyl-5-propyleneamino-2-[1H-indole-4,7-dione]prop-β-en-α-yl acetate]
[6]; L1210, 48 h, read-out: ID-50 L1210, Table VIII
  IC50: 3.4 µg/mL
[7]; read-out: ID-50 R-1, Table VIII
  IC50: 1.4 µg/mL

## CCNC1=CC(=O)c2c(c(COC(C)=O)c(/C=C/COC(C)=O)n2C)C1=O [E.O. 58, 3-Acetoxymethyl-5-ethylamino-1-methyl-2-[1H-indole-4,7-dione]prop-β-en-α-yl acetate]
[6]; [8]
  IC50: > 10 µg/mL
[6]
  ID-50 L1210: > 10 µg/mL
[7]; [9]
  IC50: > 10 µg/mL
[7]; Table VI, read-out: ID-50 R-1
  IC50: > 10 µg/mL

## COC1=CC(=O)c2c(c(CNc3ccccc3)c(/C=C/COC(C)=O)n2C)C1=O [E.O. 39, 5-Methoxy-1-methyl-3-(N-phenylaminomethyl)-2-[1H-indole-4,7-dione]prop-β-en-α-yl acetate]
[6]; [8]
  IC50: 10 µg/mL
[7]
  R-1 activity: rather high R-1 activity
[7]; [9]
  IC50: 1 µg/mL

## CCNC1=CC(=O)c2c(c(COC(C)=O)c(/C=C/CO)n2C)C1=O [E.O. 59, 3-Acetoxymethyl-5-ethylamino-1-methyl-2-[1H-indole-4,7-dione]prop-β-en-α-ol]
[6]; [8]
  IC50: > 10 µg/mL
[7]; [9]
  IC50: > 10 µg/mL

## CC(=O)OC/C=C/c1c(COC(C)=O)c2c(n1C)C(=O)C=C(NCCc1ccccn1)C2=O [E.O. 52, 3-Acetoxymethyl-1-methyl-5-[2-pyridylethyl-1-amino]-2-[1H-indole-4,7-dione]prop-β-en-α-yl acetate]
[6]; [8]
  IC50: > 10 µg/mL
[6]
  ID-50 L1210: > 10 µg/mL
[7]
  R-1 activity: rather high activities
[7]; [9]
  IC50: 3.3 µg/mL

## COC1=C(C)C(=O)c2c(c(COC(C)=O)c(/C=C/COC(C)=O)n2C)C1=O [E.O. 33, 3-Acetoxymethyl-1,6-dimethyl-5-methoxy-2-[1H-indole-4,7-dione]prop-β-en-α-yl acetate]
[1]; 0.01 μg/ml
  in vitro activity score, A 204: -
[1]; 0.1 μg/ml
  in vitro activity score, A 204: -
[1]; 1.0 μg/ml
  in vitro activity score, A 204: -
[1]; 10 μg/ml
  in vitro activity score, A 204: +
[6]; [8]
  IC50: 3.6 µg/mL
[2]; 0.01 μg/ml
  in vitro activity score, IgR-37: -
[2]; 0.1 μg/ml
  in vitro activity score, IgR-37: -
[2]; 1.0 μg/ml
  in vitro activity score, IgR-37: -
[2]; 10 μg/ml
  in vitro activity score, IgR-37: +
[7]; [9]
  IC50: 2.2 µg/mL
[3]; 0.01 μg/ml
  in vitro activity score, MCF-7: -
[3]; 0.1 μg/ml
  in vitro activity score, MCF-7: -
[3]; 1.0 μg/ml
  in vitro activity score, MCF-7: -
[4]; 0.01 μg/ml
  in vitro activity score, T 24: -
[4]; 0.1 μg/ml
  in vitro activity score, T 24: -
[4]; 1.0 μg/ml
  in vitro activity score, T 24: -
[4]; 10 μg/ml
  in vitro activity score, T 24: +
[5]; 0.01 μg/ml
  in vitro activity score, WiDr: -
[5]; 0.1 μg/ml
  in vitro activity score, WiDr: -
[5]; 1.0 μg/ml
  in vitro activity score, WiDr: -
